Paper PMC7002685, “Inhibition of vascular calcification by inositol phosphates derivatized with ethylene glycol oligomers” (Nature Communications, 2020)
Read-outs that look alike come from different tables or passages of the source.

Columns and labels:
[1] = PK s.c. in healthy and adenine/high-phosphate-diet (uremic) rats; assay type: in vivo; conditions: male, Sprague-Dawley, rat, sc; for AUC(0-t): read-out: AUC0-360 (converted)
Procedure: For many drugs, the PK profile depends on the patient’s renal status. Therefore, (OEG2)2-IP4 PK profile was also determined in an adenine and high-phosphate-diet-induced rat model of uremia, in which the compound was administered after serum creatinine levels had increased by fourfold relative to baseline (Fig. 4g, h). […] Similar results were observed following s.c. administration (Supplementary Table 5).
To study PK in uremic animals, male Sprague-Dawley rats (Charles River Laboratories, L’Arbresle, France) were housed two per cage with free access to water and standard chow (rat/mouse maintenance diet, SSNIFF Spezialdiäten GmbH, Soest, Germany) and submitted to a 12-h light/dark cycle. Animals were fed a low-protein (2.5%) diet containing high phosphorus (1.3% phosphorus and 0.7% calcium) and 0.3% adenine to induce uremia (SSNIFF Spezialdiäten GmbH). Control animals were fed same diet but without adenine. Every 10 days, a sample of blood was punctured at the tail vein of each animal. Serum and urine creatinine, calcium, and phosphorus were then assessed using standard colorimetric biochemistry analysis (Cobas Mira, Roche, Basel, Switzerland). When a fourfold increase of creatinine was observed compared to control, the rat was considered uremic and suitable for PK experiments. The method was validated using eight animals on control- and adenine-supplemented diet respectively. For PK studies, on the morning of the experimental day, a catheter was inserted in the right carotid artery under halothane anesthesia. Subsequently, rats were allowed to recover for 3 h and uremic and non-uremic rats, respectively, were assigned to three groups of six rats each. […] Blood aliquots were drawn after drug administration, centrifuged, decanted, and stored at −80 °C until serum drug quantification by LC-MS, as well as analysis of serum creatinine, calcium, and phosphorus (Cobas Mira).
The bioanalytical method for (OEG2)2-IP4 in rat plasma was further optimized, qualified, and applied to the comparative PK study in adenine and high-phosphate diet-induced VC vs. vitamin D-induced VC animals. The LC-MS/MS analyses were carried out using a Dionex Ultimate RSLC ultra-high-pressure liquid chromatography (UHPLC) system (Thermo Fisher Scientific) coupled with a TSQ Quantiva^TM triple quadrupole mass spectrometer. The samples were stored at 5 °C in the autosampler prior to and during the analyses. […] Gradient elution (solvent A, 20 mM ammonium acetate in water (pH 5); solvent B, ACN) was used according to the program reported in Supplementary Table 18. The injection volume was 10 µL. MS/MS parameters (MRM acquisition, cycle time 0.2 s) for (OEG2)2-IP4 are reported in Supplementary Table 19 and the ESI source, working in negative ionization mode, applied the following parameters: static spray voltage 3000 V ion transfer tube and vaporizer temperatures at 400 and 100 °C, respectively; sheath and auxiliary gas (nitrogen) flow rates at 80 and 3 (arbitrary units). For the quantitative determination in rat plasma, product ion m/z 158.9 was selected because it provided the best sensitivity and selectivity. Calibration curve and quality control samples were prepared by adding 2 μL of working solution to 38 μL rat blank K3EDTA plasma (Biochemed, Winchester, VA) and precipitating plasma protein by addition of 120 μL of MeOH including internal standard OEG11-IP5. Samples were vortexed 1 min and centrifuged at (22,000 × g, 4 °C, 10 min). Supernatants (90 μL) were then transferred into a glass vial with insert and injected onto LC-MS/MS system. Both in adenine and high-phosphate diet-induced VC and vitamin D-induced VC rat PK samples were prepared for analysis in an analogous manner as done for spiked samples (assay volume 40 μL). The LLOQ and LOD in rat plasma for (OEG2)2-IP4 were 50 and 10 ng/mL, respectively. The ULOQ and detection was 50,000 ng/mL.

[2] = target: T1, (Homo sapiens, UniProt P25100); experiment: Off-target 203400; assay type: binding
T1 construct: purchased Eurofins Panlabs Discovery Services Taiwan, Ltd
T1 sequence (P25100 whole entry): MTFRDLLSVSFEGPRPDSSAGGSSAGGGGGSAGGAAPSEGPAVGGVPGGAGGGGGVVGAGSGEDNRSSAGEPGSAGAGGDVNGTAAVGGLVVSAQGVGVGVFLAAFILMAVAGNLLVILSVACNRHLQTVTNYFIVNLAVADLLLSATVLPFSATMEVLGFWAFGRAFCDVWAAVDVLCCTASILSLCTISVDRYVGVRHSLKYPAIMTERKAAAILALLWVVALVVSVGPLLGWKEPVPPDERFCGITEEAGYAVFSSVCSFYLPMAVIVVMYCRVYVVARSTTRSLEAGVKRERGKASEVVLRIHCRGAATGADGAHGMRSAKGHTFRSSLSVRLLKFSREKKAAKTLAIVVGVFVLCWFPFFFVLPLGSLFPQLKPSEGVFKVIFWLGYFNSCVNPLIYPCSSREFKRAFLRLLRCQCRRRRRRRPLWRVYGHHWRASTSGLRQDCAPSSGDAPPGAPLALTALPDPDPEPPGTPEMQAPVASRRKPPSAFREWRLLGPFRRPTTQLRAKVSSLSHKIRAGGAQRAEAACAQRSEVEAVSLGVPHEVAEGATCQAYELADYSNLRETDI
Procedure: (§1) The potential off-target activity of 10 µM (OEG2)2-IP4 was assessed against a panel of 87 enzymes, receptors, or ion channels that are used in standard safety pharmacology screens.
(§2) 3.2. Off-target screening assay
(§3) The experiments were conducted by a contract research organization (Eurofins Panlabs Discovery Services Taiwan, Ltd.) and details on the respective assays can be retrieved via the catalog number provided in Supplementary Table 11 from the company’s webpage
(§4) (https://www.eurofinsdiscoveryservices.com/). […]
(§5) At sacrifice the left tibia of animals of the rat model with dietary adenine/high-phosphate-induced uremia and VC was collected, fixed with 70% v/v EtOH and embedded in methyl methacrylate. The trabecular bone compartment is known to be the most metabolic active i.e. actively re-structured bone compartment in CKD. Therefore, histomorphometric and micro-computed tomography (µCT) analysis of bone was performed on the trabecular compartment. Tibial sections were Goldner-stained for histomorphometric analysis of the proximal metaphysis using the AxioVision Release 4.5 software, as […]
(§6) described previously5. […]

Bradykinin B2 = target: T2, Bradykinin B2 (Homo sapiens, UniProt P30411); experiment: Off-target 212320; assay type: binding
T2 construct: purchased Eurofins Panlabs Discovery Services Taiwan, Ltd
T2 sequence (P30411 whole entry): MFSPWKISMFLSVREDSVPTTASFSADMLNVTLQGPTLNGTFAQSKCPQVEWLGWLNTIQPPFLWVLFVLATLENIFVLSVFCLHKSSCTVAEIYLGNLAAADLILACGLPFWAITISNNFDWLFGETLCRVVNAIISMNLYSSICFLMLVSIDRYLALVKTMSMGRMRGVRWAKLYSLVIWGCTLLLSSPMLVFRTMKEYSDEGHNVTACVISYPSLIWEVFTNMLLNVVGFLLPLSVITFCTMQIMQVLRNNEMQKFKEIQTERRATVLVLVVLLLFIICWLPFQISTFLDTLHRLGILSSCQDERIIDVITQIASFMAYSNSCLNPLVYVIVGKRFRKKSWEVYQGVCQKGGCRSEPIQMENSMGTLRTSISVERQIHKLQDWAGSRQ
Procedure: as §1, §2, §3, §4, §5, §6

Adrenergic β1 = target: T3, Adrenergic β1 (Homo sapiens, UniProt P08588); experiment: Off-target 204010; assay type: binding
T3 construct: purchased Eurofins Panlabs Discovery Services Taiwan, Ltd
T3 sequence (P08588 whole entry): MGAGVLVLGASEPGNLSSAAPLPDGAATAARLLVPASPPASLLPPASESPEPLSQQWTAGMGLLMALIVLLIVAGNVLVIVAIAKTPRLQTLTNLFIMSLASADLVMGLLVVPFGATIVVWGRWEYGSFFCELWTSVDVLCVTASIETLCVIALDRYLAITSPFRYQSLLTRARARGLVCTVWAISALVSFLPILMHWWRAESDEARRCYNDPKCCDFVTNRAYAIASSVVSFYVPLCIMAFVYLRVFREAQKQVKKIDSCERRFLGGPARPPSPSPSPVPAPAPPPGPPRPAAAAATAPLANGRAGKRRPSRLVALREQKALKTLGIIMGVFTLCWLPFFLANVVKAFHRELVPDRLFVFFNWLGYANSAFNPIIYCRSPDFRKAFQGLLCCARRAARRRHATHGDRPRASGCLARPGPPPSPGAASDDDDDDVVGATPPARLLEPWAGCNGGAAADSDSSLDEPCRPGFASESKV
Procedure: as §1, §2, §3, §4, §5, §6

[3] = Compound stress test in D2O at 37 °C (NMR); assay type: physicochemical; conditions: up to 6 weeks
Procedure: For the compound stress test, 20.25 mg (OEG2)2-IP4 in 700 µL D2O was incubated at 37 °C and stability was monitored by ^1H-NMR and ^31P-NMR spectroscopies for up to 6 weeks.
Monitoring the stability of (OEG2)2-IP4 in aqueous solution at 37 °C for up to 6 weeks by 1H-
Monitoring the stability of (OEG2)2-IP4 in aqueous solution at 37 °C for up to 6 weeks by 31P- […]

[4] = target: T4, Serotonin (5-Hydroxytryptamine) 5-HT2A (Homo sapiens, UniProt P28223); experiment: Off-target 271650; assay type: binding
T4 construct: purchased Eurofins Panlabs Discovery Services Taiwan, Ltd
T4 sequence (P28223 whole entry): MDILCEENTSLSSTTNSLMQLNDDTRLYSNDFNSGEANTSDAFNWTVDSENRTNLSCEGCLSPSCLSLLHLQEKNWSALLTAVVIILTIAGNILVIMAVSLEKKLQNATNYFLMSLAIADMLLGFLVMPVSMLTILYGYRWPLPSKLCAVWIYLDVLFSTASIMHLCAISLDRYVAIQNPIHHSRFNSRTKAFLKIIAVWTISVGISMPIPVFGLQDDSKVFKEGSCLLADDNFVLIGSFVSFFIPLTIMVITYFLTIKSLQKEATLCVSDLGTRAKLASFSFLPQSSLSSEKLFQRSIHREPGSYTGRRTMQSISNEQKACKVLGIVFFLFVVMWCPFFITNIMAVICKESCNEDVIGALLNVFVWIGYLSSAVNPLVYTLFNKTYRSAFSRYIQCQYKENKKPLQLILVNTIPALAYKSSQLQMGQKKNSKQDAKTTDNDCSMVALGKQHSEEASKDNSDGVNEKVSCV
Procedure: as §1, §2, §3, §4, §5, §6

[5] = tested on: Protein Serine/Threonine Kinase, PKC, Non-selective; experiment: Off-target 178010; assay type: biochemical, Rat; conditions: 10 µM
Procedure: as §1, §2, §3, §4, §5, §6

[6] = target: T5, Serotonin (5-Hydroxytryptamine) 5-HT3 (Homo sapiens, UniProt P46098); experiment: Off-target 271910; assay type: binding
T5 construct: purchased Eurofins Panlabs Discovery Services Taiwan, Ltd
T5 sequence (P46098 24-478): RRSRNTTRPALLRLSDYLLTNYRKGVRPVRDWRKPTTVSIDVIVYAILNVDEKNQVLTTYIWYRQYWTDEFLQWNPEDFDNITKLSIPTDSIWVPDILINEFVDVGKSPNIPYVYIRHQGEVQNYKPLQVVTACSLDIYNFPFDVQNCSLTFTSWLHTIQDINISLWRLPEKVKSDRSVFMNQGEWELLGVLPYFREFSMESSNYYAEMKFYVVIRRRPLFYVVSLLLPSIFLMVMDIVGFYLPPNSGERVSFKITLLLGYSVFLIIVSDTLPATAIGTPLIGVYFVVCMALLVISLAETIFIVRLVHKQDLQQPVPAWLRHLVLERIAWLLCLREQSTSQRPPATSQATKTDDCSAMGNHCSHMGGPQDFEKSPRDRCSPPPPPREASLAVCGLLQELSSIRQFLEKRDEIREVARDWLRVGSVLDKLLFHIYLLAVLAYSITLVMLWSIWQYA
Procedure: as §1, §2
The experiments were conducted by a contract research organization (Eurofins Panlabs Discovery
Services Taiwan, Ltd.) and details on the respective assays can be retrieved via the catalog number
provided in Supplementary Table 11 from the company’s webpage
as §4

[7] = serum, 10 mg/kg, 10 mg/kg s.c., Healthy
[8] = serum, 10 mg/kg, 10 mg/kg s.c., Uremic

Structure (SMILES): COCCOCCO[C@@H]1[C@@H](OP(=O)(O)O)[C@H](OCCOCCOC)[C@@H](OP(=O)(O)O)[C@@H](OP(=O)(O)O)[C@H]1OP(=O)(O)O [(OEG2)2-IP4, 4,6-Di-O-(methoxy-diethyleneglycol)-myo-inositol-1,2,3,5-tetrakis(phosphate)]
- concentration at 3 h ([1]; plasma, 10 mg/kg, Healthy, s.c., Time 3 h, individual rats, read-out: plasma concentration (Figure 4h)): 2.57 µM
- AUC(0-inf) [1, 7]: 19.7 µM·h
- MRT [1, 7]: 1.1 h
- half-life [1, 7]: 1.32 ± 0.45 h
- AUC(0-t) [1, 7]: 19.2 µM·h
- AUC(0-inf) [1, 8]: 37.9 µM·h
- MRT [1, 8]: 2.07 h
- half-life [1, 8]: 2.05 ± 1.07 h
- AUC(0-t) [1, 8]: 31.8 µM·h
- Cmax ([1]; serum, 10 mg/kg s.c., Healthy): 12 ± 4 µM
- inhibition at 10 µM [2]: 10%
- inhibition at 10 µM (Bradykinin B2): -17%
- inhibition at 10 µM (Adrenergic β1): 2%
- stability in aqueous solution by 1H- and 31P-NMR [3]: No compound degradation was evident
- inhibition at 10 µM [4]: -1%
- % Inhibition [5]: -18%
- inhibition at 10 µM [6]: 8%
